Assay results as given in patent publication US20100144855A1, “APPLICATION OF SEDOISOPROSAN FOR PREPARATION OF MEDICINE FOR TREATMENT OF HUMAN HBeAg POSITIVE CHRONIC HEPATITIS B” (priority 2008, published 2010).

Assay: clinical trial, safety in HBeAg positive chronic hepatitis B patients
Type: in vivo, human
Settings: for cases with adverse events: 16 cases
Description: The clinical trial protocol was designed according to the randomized, double-blind and controlled principle. The clinical efficacy and the safety of sedoisoprosan for therapy on human HBeAg positive chronic hepatitis B is defined according to the changes of vivo HBV-DNA level, ALT level, vital signs, blood routine indexes, blood biochemical indexes and thyroid function indexes before and after administration and the incidence of adverse events.
Patients enrolled in the clinical trials were randomly divided into four groups, i.e. negative control group (800 mg mannite), low dose group (200 mg sedoisoprosan with 600 mg mannite), median dose group (400 mg sedoisoprosan with 400 mg mannite) and high dose group (800 mg sedoisoprosan) respectively. Each patient was assigned with a CRF No. which was randomly generated by computer.
Baseline assessment was performed on the day of the first administration, which included medical examination, hematological examination, blood biochemical examination, thyroid function examination, ALT examination and quantitative detection of HBV-DNA. The medical examination included the examination of stature, avoirdupois, blood pressure and pulse rate. The hematological examination included the leucocyte, neutrophil, erythrocyte, platelet and haemoglobin counts, and the prothrombin time. The blood biochemical examination included the examination of serum potassium, sodium, GOT, total bilirubin, AKP, total protein, albumin, total cholesterol, triglyceride, urea nitrogen, creatinine and glucose.
The patients were followed up at the 1st, 2nd, 4th, 8th and 12th week of the treatment. The blood biochemical examination and the quantitative detection of HBV-DNA was performed at the 2nd, 4th, 8th and 12th week of the treatment, and the adverse events were recorded at the same time. The thyroid function examination was performed at the 12th week of the treatment.
The safety indexes included vital signs, clinical laboratory parameters, adverse events, important adverse events, serious adverse events and the early termination cases. The safety analysis should be performed on patients who have received at least once administration and were evaluated after the administration.
The detection of vital signs and laboratory parameters and the recording for adverse events was performed at baseline and at the 1st, 2nd, 4th, 8th and 12th week of the treatment. The vital signs and laboratory parameters were evaluated by the changes thereof before and after the treatment. The incidence of adverse events was figured by the proportion of patients having adverse events during the treatment, and the evaluation of adverse events included the kinds, grades and the relationship to the drugs. The adverse events were recorded by descriptive statistics, and comparison of the incidence thereof between the four groups was performed by Fisher probabilistic test.

[1] = high dose group, 800 mg, the 1st week
[2] = high dose group, 800 mg, the 2nd week
[3] = high dose group, 800 mg, the 4th week
[4] = high dose group, 800 mg, the 8th week
[5] = high dose group, 800 mg, the 12th week
[6] = low dose group, 200 mg, the 1st week
[7] = low dose group, 200 mg, the 2nd week
[8] = low dose group, 200 mg, the 4th week
[9] = low dose group, 200 mg, the 8th week
[10] = low dose group, 200 mg, the 12th week
[11] = median dose group, 400 mg, the 1st week
[12] = median dose group, 400 mg, the 2nd week
[13] = median dose group, 400 mg, the 4th week
[14] = median dose group, 400 mg, the 8th week
[15] = median dose group, 400 mg, the 12th week
[16] = patient CRF 3, high dose group (800 mg)
[17] = patient CRF 7, low dose group (200 mg)
[18] = patient CRF 10, low dose group (200 mg)
[19] = patient CRF 14, low dose group (200 mg)
[20] = patient CRF 15, median dose group (400 mg)
[21] = patient CRF 17, low dose group (200 mg)
[22] = patient CRF 19, high dose group (800 mg)
[23] = patient CRF 20, median dose group (400 mg)
[24] = patient CRF20, median dose group, after 8 weeks' treatment
[25] = patient CRF 32, median dose group (400 mg)
[26] = patient CRF 60, median dose group (400 mg)

## CC1(C)OC2C3COC(CO)(O3)C(O)C2O1 (centres unmarked) [sedoisoprosan, isopropylidene sedoheptulosan]
800 mg
  safety of the highest dose (vital signs, blood routine and blood biochemical indexes): safe
12 weeks' treatment
  changes in total bilirubin levels before and after the treatment: significant changes in total bilirubin levels before and after the treatment, but such changes were still within the normal range
  changes in vital signs, blood routine indexes and blood biochemical indexes, excluding the total bilirubin levels, before and after the treatment: No significant changes
CRF16, CRF19 and CRF20
  important adverse events related to the study drug and needing treatment: 3 cases
All groups
  central nervous system abnormalities among adverse events: No central nervous system abnormalities were found
Clinical trials, 200-800 mg
  incidence of adverse events: low
High dose group
  patients who quitted the clinical trials for adverse events: No patients
High dose group (800 mg)
  cases with adverse events: two
[1]
  Avoirdupois: 61.34 ± 9.96 kg
  Diastolic Pressure: 75.31 ± 7.26 mmHg
  Pulse rate: 76.00 ± 5.81 times/min
  Respiratory frequency: 18.00 ± 1.86 times/min
  Systolic Pressure: 115.56 ± 13.17 mmHg
[2]
  Avoirdupois: 61.41 ± 9.89 kg
  Diastolic Pressure: 75.31 ± 6.14 mmHg
  Pulse rate: 75.81 ± 5.27 times/min
  Respiratory frequency: 18.38 ± 1.78 times/min
  Systolic Pressure: 112.81 ± 12.55 mmHg
[3]
  Avoirdupois: 61.53 ± 9.81 kg
  Diastolic Pressure: 75.44 ± 6.03 mmHg
  Pulse rate: 76.38 ± 5.95 times/min
  Respiratory frequency: 17.94 ± 1.84 times/min
  Systolic Pressure: 112.69 ± 11.69 mmHg
[4]
  Avoirdupois: 62.06 ± 9.20 kg
  Diastolic Pressure: 77.56 ± 5.05 mmHg
  Pulse rate: 75.75 ± 5.27 times/min
  Respiratory frequency: 18.75 ± 1.24 times/min
  Systolic Pressure: 115.19 ± 10.91 mmHg
[5]
  Avoirdupois: 62.67 ± 9.45 kg
  Diastolic Pressure: 76.73 ± 5.16 mmHg
  Pulse rate: 75.73 ± 4.85 times/min
  Respiratory frequency: 19.13 ± 1.13 times/min
  Systolic Pressure: 115.20 ± 11.55 mmHg
Low dose group (200 mg)
  cases with adverse events: four
[6]
  Avoirdupois: 61.72 ± 10.47 kg
  Diastolic Pressure: 72.38 ± 5.14 mmHg
  Pulse rate: 76.06 ± 5.95 times/min
  Respiratory frequency: 18.63 ± 1.31 times/min
  Systolic Pressure: 116.63 ± 8.79 mmHg
[7]
  Avoirdupois: 61.59 ± 10.80 kg
  Diastolic Pressure: 73.38 ± 6.01 mmHg
  Pulse rate: 74.13 ± 4.70 times/min
  Respiratory frequency: 18.75 ± 1.57 times/min
  Systolic Pressure: 116.00 ± 10.67 mmHg
[8]
  Avoirdupois: 61.57 ± 10.72 kg
  Diastolic Pressure: 74.87 ± 6.55 mmHg
  Pulse rate: 75.13 ± 4.50 times/min
  Respiratory frequency: 18.60 ± 1.30 times/min
  Systolic Pressure: 113.93 ± 9.95 mmHg
[9]
  Avoirdupois: 62.86 ± 11.14 kg
  Diastolic Pressure: 73.29 ± 5.82 mmHg
  Pulse rate: 73.57 ± 5.65 times/min
  Respiratory frequency: 18.64 ± 1.45 times/min
  Systolic Pressure: 115.71 ± 9.75 mmHg
[10]
  Avoirdupois: 63.58 ± 12.09 kg
  Diastolic Pressure: 74.54 ± 4.94 mmHg
  Pulse rate: 71.54 ± 4.16 times/min
  Respiratory frequency: 19.15 ± 1.28 times/min
  Systolic Pressure: 115.85 ± 10.79 mmHg
Median dose group (400 mg)
  cases with adverse events: four
[11]
  Avoirdupois: 62.67 ± 12.11 kg
  Diastolic Pressure: 71.53 ± 7.53 mmHg
  Pulse rate: 77.60 ± 3.83 times/min
  Respiratory frequency: 19.13 ± 3.76 times/min
  Systolic Pressure: 114.33 ± 11.00 mmHg
[12]
  Avoirdupois: 62.30 ± 12.09 kg
  Diastolic Pressure: 71.73 ± 6.24 mmHg
  Pulse rate: 75.47 ± 5.36 times/min
  Respiratory frequency: 18.53 ± 3.54 times/min
  Systolic Pressure: 114.67 ± 9.85 mmHg
[13]
  Avoirdupois: 61.73 ± 9.86 kg
  Diastolic Pressure: 73.13 ± 5.69 mmHg
  Pulse rate: 76.40 ± 3.81 times/min
  Respiratory frequency: 18.40 ± 4.03 times/min
  Systolic Pressure: 115.80 ± 10.25 mmHg
[14]
  Avoirdupois: 62.70 ± 11.76 kg
  Diastolic Pressure: 73.73 ± 4.51 mmHg
  Pulse rate: 75.40 ± 3.25 times/min
  Respiratory frequency: 19.27 ± 2.34 times/min
  Systolic Pressure: 110.87 ± 7.70 mmHg
[15]
  Avoirdupois: 59.88 ± 8.18 kg
  Diastolic Pressure: 74.77 ± 5.15 mmHg
  Pulse rate: 78.00 ± 4.53 times/min
  Respiratory frequency: 19.31 ± 2.66 times/min
  Systolic Pressure: 115.69 ± 9.67 mmHg
One patient, low dose group, after 6 weeks' treatment
  reason for early termination: progressive increasing ALT level
[16]
  Adverse event Liver Dysfunction: Outcome: Remission Without Sequela
  Adverse event Liver Dysfunction: Relation to the study drug: Unrelated
  Adverse event Liver Dysfunction: Severity: Light
[17]
  Adverse event Urinary Tract Infection: Outcome: Remission Without Sequela
  Adverse event Urinary Tract Infection: Relation to the study drug: Unrelated
  Adverse event Urinary Tract Infection: Severity: Light
[18]
  Adverse event Progressive Increase in ALT Level: Outcome: Reexamination of Liver Function After A Week
  Adverse event Progressive Increase in ALT Level: Relation to the study drug: Maybe Unrelated
  Adverse event Progressive Increase in ALT Level: Severity: Middle
[19]
  Adverse event Alopecia: Outcome: No Change
  Adverse event Alopecia: Relation to the study drug: Maybe Related
  Adverse event Alopecia: Severity: Light
  Adverse event Gingival Bleeding: Outcome: Remission Without Sequela
  Adverse event Gingival Bleeding: Relation to the study drug: Maybe Unrelated
  Adverse event Gingival Bleeding: Severity: Light
  Adverse event Liver Dysfunction: Outcome: Remission Without Sequela
  Adverse event Liver Dysfunction: Relation to the study drug: Maybe Unrelated
  Adverse event Liver Dysfunction: Severity: Light
  Adverse event Pharyngoxerosis: Outcome: Remission Without Sequela
  Adverse event Pharyngoxerosis: Relation to the study drug: Unrelated
  Adverse event Pharyngoxerosis: Severity: Light
[20]
  Adverse event Alopecia: Outcome: No Change
  Adverse event Alopecia: Relation to the study drug: Maybe Related
  Adverse event Alopecia: Severity: Light
  Adverse event Emesis: Outcome: Remission Without Sequela
  Adverse event Emesis: Relation to the study drug: Maybe Unrelated
  Adverse event Emesis: Severity: Light
  Adverse event Gingival Bleeding: Outcome: Remission Without Sequela
  Adverse event Gingival Bleeding: Relation to the study drug: Maybe Unrelated
  Adverse event Gingival Bleeding: Severity: Light
  Adverse event Increase in ALT Level: Outcome: Remission Without Sequela
  Adverse event Increase in ALT Level: Relation to the study drug: Maybe Unrelated
  Adverse event Increase in ALT Level: Severity: Light
[21]
  Adverse event Alopecia: Outcome: No Change
  Adverse event Alopecia: Relation to the study drug: Maybe Related
  Adverse event Alopecia: Severity: Light
[22]
  Adverse event ALT 74 U/L, TBil 133.1: Outcome: Remission Without Sequela
  Adverse event ALT 74 U/L, TBil 133.1: Relation to the study drug: Maybe Related
  Adverse event ALT 74 U/L, TBil 133.1: Severity: Middle
  Adverse event Aggravated Muscle Ache: Outcome: Remission Without Sequela
  Adverse event Aggravated Muscle Ache: Relation to the study drug: Maybe Related
  Adverse event Aggravated Muscle Ache: Severity: Middle
  Adverse event Costalgia And Notalgia: Outcome: Remission Without Sequela
  Adverse event Costalgia And Notalgia: Relation to the study drug: Maybe Related
  Adverse event Costalgia And Notalgia: Severity: Middle
  Adverse event Generalized Muscle Ache: Outcome: Remission Without Sequela
  Adverse event Generalized Muscle Ache: Relation to the study drug: Maybe Related
  Adverse event Generalized Muscle Ache: Severity: Light
[23]
  Adverse event Acid Regurgitation: Outcome: Remission Without Sequela
  Adverse event Acid Regurgitation: Relation to the study drug: Maybe Related
  Adverse event Acid Regurgitation: Severity: Light
  Adverse event Aggravated Digestive Symptom: Outcome: Remission Without Sequela
  Adverse event Aggravated Digestive Symptom: Relation to the study drug: Related
  Adverse event Aggravated Digestive Symptom: Severity: Middle
  Adverse event Dark Urine: Outcome: Remission Without Sequela
  Adverse event Dark Urine: Relation to the study drug: Related
  Adverse event Dark Urine: Severity: Middle
  Adverse event Epigastric Discomfort: Outcome: Remission Without Sequela
  Adverse event Epigastric Discomfort: Relation to the study drug: Related
  Adverse event Epigastric Discomfort: Severity: Middle
  Adverse event Hypodynamia: Outcome: Remission Without Sequela
  Adverse event Hypodynamia: Relation to the study drug: Related
  Adverse event Hypodynamia: Severity: Middle
  Adverse event Icterus: Outcome: Remission Without Sequela
  Adverse event Icterus: Relation to the study drug: Related
  Adverse event Icterus: Severity: Middle
[24]
  ALT level at early termination: 343 U/L
  AST level at early termination: 517 U/L
  TBil level at early termination: 68.1 µmol/L
[25]
  Adverse event Toothache And Periodontitis: Outcome: Remission Without Sequela
  Adverse event Toothache And Periodontitis: Relation to the study drug: Unrelated
  Adverse event Toothache And Periodontitis: Severity: Middle
[26]
  Adverse event Upper Respiratory Tract Infection: Outcome: Remission Without Sequela
  Adverse event Upper Respiratory Tract Infection: Relation to the study drug: Unrelated
  Adverse event Upper Respiratory Tract Infection: Severity: Middle
